# Where “and” joins values, the source holds several entries; their conditions need not be identical. Identical values can stand only once. Like-named read-outs stand apart in the source and are kept apart here.
# What was measured:
# SH-SY5Y cells lysate = assay: Malondialdehyde (MDA) in cell lysate (TBA:TCA); format: cell-based, Human; conditions: 24 h pre-treatment, 6 h H2O2 100 μM
# Experimental: (§1) Human neuroblastoma SH-SY5Y cells (ATCC CRL-2266, Manassas, VA, USA) were maintained in Dulbecco’s modified Eagle’s medium (DMEM, Gibco) supplemented with 10% fetal bovine serum (FBS), 1% kanamycin, and 1% penicillin (Thermo Fisher Scientific, Waltham, MA, USA) at 37 °C with 5% CO2, and a 95% humidified atmosphere in the incubator. The experiments were executed at 80–90% cell confluency.
# The cells (5 × 10^4 cells/well) were seeded in a 6-well sterile plate and incubated for 18–24 h. After stabilization, cells were pre-treated with the extracts and phytocompounds for 24 h before 6 h incubation with H2O2 (100 μM). The culture media was removed, and the cells were washed with cold PBS (1X). The cells were placed on ice and incubated with pre-chilled RIPA buffer for 10 min. Transfer the lysate in microfuge tubes and centrifuge (Labogene 1730R, BMS, Paju-si, Republic of Korea) for 10 min at 20,000× g, 4 °C. The supernatant was collected and stored at −80 °C.
# MDA levels were measured using TBA: TCA reagent as described previously. In the reaction, MDA reacts with two molecules of thiobarbituric acid (TBA) to give a pink pigment that absorbs at 532 nm. The standard curve of MDA (1–100 μM) was used to calculate lipid peroxidation in the lysate.
# rodent models = conditions: cited from earlier work
# [1] = cited from earlier work
# [2] = Ferric reducing antioxidant potential (FRAP) assay; conditions: 1 mg/mL
# Experimental: FRAP assay was used to assess the […] of the extracts and phytocompounds with slight modification in a previously reported method. For the assay, the extract (1 mg/mL) was incubated with 200 μL of FRAP reagent, and the reduction of ferric tripyridyltriazine was monitored at 593 nm (Multimode reader, Synergy-H1 BioTek, Agilent, USA). Ascorbic acid (2 μg/mL) was used as a positive control. FRAP values of the extracts and phytocompounds were calculated from the standard curve of FeSO4 (15–250 μM) and expressed as μM Fe^2+/g.
# [3] = biological target: T1, Acetylcholinesterase (Electrophorus electricus, Type VI-S) (Electrophorus electricus, UniProt O42275); assay: biochemical; conditions: for Type of Inhibition of AChE: Lineweaver–Burk plot, 100 and 200 μg/mL; for Vmax of AChE in presence of inhibitor: no inhibitor 2.975; for IC50: read-out: AChE IC50 (converted)
# T1 construct: purchased Sigma-Aldrich
# T1 sequence (O42275 24-633): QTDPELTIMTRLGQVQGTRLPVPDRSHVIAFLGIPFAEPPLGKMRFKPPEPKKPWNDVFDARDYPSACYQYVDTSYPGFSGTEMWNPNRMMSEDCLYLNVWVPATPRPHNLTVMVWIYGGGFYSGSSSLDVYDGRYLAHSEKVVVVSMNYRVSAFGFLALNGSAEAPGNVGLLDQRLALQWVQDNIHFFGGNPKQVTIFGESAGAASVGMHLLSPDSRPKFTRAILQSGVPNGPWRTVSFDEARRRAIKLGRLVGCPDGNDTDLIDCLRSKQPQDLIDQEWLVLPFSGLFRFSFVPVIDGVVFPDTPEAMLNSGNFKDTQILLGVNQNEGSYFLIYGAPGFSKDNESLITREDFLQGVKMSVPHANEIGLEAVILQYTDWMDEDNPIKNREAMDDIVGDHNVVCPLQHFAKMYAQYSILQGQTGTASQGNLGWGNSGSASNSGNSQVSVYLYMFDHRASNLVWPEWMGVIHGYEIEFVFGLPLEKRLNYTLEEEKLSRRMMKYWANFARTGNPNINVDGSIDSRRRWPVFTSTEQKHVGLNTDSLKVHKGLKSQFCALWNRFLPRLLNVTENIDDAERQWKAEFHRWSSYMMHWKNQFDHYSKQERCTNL
# Experimental: The AChE activity was examined by slight modifications [23] in Ellman’s method [76]. The extracts and phytocompounds were incubated for 15 min with AChE and 10 mM ATCC at 37 °C. The reaction was stopped by DTNB (15 mM), and the absorbance was measured at 412 nm (Multi-mode plate reader, Synergy-H1 BioTek, Agilent, USA). […] The percent inhibition was calculated as:Percent Inhibition (I%) = [(Ao − Ac) − (Bi − Bc)]/(Ao − Ac) × 100 where Ao is the absorbance without inhibitor; Ac is the negative control without inhibitor; Bi is the absorbance with inhibitor; and Bc is the negative control with inhibitor. The IC50 values were calculated using GraphPad Prism 10. Lineweaver–Burk plot was used to prepare the inhibition curves (with and without extract/phytocompound) using GraphPad Prism 10. The kinetic parameters were calculated from a non-linear fit (Michaelis–Menten equation) in GraphPad Prism 10.
# Statistical analysis was established by a one-way ANOVA followed by Dunnett’s post hoc test. Data are registered as the mean ± SEM of three sets of experiments. […] The IC50 values were determined using non-linear regression. The Vmax and Km were calculated from a Michaelis–Menten plot drawn using a non-linear plot (GraphPad Prism 10). Lineweaver–Burk plots were drawn using linear regression analysis (GraphPad Prism 10). The Ki values were calculated from the formula IC50 = Ki (1 + [S]/Km).
# Aβ1–42 [4] = biological target: T2, Aβ1–42 (Homo sapiens, UniProt P05067); assay: Anti-Aβ1–42 oligomerization, multimeric detection system (MDS); format: biochemical; conditions: vs negative control (Buffer + Aβ)
# T2 construct: Aβ1–42 for MDS (GenicBio Inc., Shanghai, China); purchased GenicBio Inc
# T2 sequence (P05067 672-713): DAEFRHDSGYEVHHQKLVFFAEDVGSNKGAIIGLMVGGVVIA
# Experimental: The anti-Aβ1–42 oligomerization and fibrilization activity of the extracts/bioactives were measured by Multiple Detection System (MDS) and ThT assay, respectively. Briefly, the extracts and phytocompounds were incubated with Aβ1–42 at RT for different time points (0 h, 2 h, and 4 h). The samples were incubated on an anti-β-amyloid pre-coated plate for 1 h at RT. An HRP-conjugated W0–2 monoclonal antibody was added, and the plate was kept at RT for 30 min. Later, TMB was added, and the plate was incubated for 15 min at RT. The absorbance was read at 450 nm using a microplate reader (Victor3, PerkinElmer, Shelton, CT, USA)
# AChE = conditions: cited from earlier work
# [5] = system: SH-SY5Y neuroblastoma cell line; assay: Cell viability / cytotoxicity assay (WST-8); format: cell-based, Human
# Experimental: as §1
# The cells were seeded (1 × 10^4 cells/well) in 96-well sterile plates and pre-treated with various extract concentrations (1, 10, 30 µg/mL) for 24 h. The extracts and phytocompounds were removed and incubated for 2 h with 10% WST-8 reagent (Roche, Grenzach-Wyhlen, Germany) as described previously. The absorbance was determined at 450 nm in a multi-plate reader (Synergy-H1 BioTek, Agilent, USA). The percent cytotoxicity was calculated as:Cytotoxicity % = (Ac − At)/(Ac) × 100 where Ac = absorbance of the control cells, At = absorbance of the treated cells.
# The plot of percent cytotoxicity versus sample concentration was used to calculate the extract concentration that killed 50% of the cells (IC50).
# [6] = system: AChE (bovine erythrocyte); design: method as in doi:10.1021/jf960398b; conditions: cited from earlier work
# Aβ1–42 [7] = biological target: T2, Aβ1–42; assay: Anti-Aβ1–42 fibrilization, ThT assay; format: biochemical; conditions: samples 500 μg/mL; 37 °C 24 h
# Experimental: The anti-Aβ1–42 fibrilization activity of the extracts/bioactives was monitored using a ThT assay. The samples were incubated in the presence/absence of Aβ1–42 at 37 °C for 24 h. The samples were incubated with 100 μM ThT at 37 °C for 15 min. The fluorescence was monitored at Ex 450 nm/Ems 490 nm (Synergy-H1 BioTek, Agilent, Santa Clara, CA, USA). For the control, phenol red (50 μM) was used. The Aβ1–42 aggregation inhibition was calculated as follows:Percent Inhibition (%) = [(1 − Fi/Fc) × 100] where Fi and Fc are the fluorescence intensity with and without the inhibitors, respectively.
# [8] = system: H2O2-induced neuroblastoma SH-SY5Y cells; assay: Neuroprotection assay against H2O2-induced oxidative stress (WST-8); format: cell-based, Human; conditions: Homo sapiens, SH-SY5Y; 30 µg/mL; 12 h pre-treatment, 1 h H2O2 100 µM; read-out: % cell viability, H2O2-induced SH-SY5Y
# Experimental: as §1
# The neuroprotective effect of extracts and phytocompounds on H2O2-induced oxidative stress in SH-SY5Y by a previously described method. The cells (1 × 10^4 cells/well) were seeded in a 96-well sterile plate. After stabilization, the cells were pre-treated with the extracts and phytocompounds for 24 h. The extracts and phytocompounds were removed and treated with H2O2 (100 μM) for 6 h. A solvent control, H2O2 alone, and extract alone treatments were also included. After incubation, the % cell viability was measured using WST-8 reagent in triplicate experiments.
compound,measurement,setting,value
"C=C(C)[C@H]1CC=C(C)C(=O)C1 [carvone, D-carvone]",MDA level,SH-SY5Y cells lysate; 0.1 µg/mL,1.71 µM
same,MDA level,SH-SY5Y cells lysate; 1 and 10 µg/mL,~ 1.33 µM
same,LD50,rodent models,1640 mg/kg
same,BBB permeability,[1],can cross BBB
same,FRAP value,[2],43.25 ± 2.50 µM Fe^2+/g
same,Ki,[3]; Ki,1800 µM
same,Ki,"[3]; Ki (inhibitor constant), AChE",1800 µM and 1790 µM
same,Type of Inhibition of AChE,[3],competitive inhibition
same,Type of Inhibition of AChE,[3]; listed as Carvone,Competitive
same,Vmax of AChE in presence of inhibitor,[3]; inhibitor 100 μg/mL,2.900 µmol/min/mg
same,Vmax of AChE in presence of inhibitor,[3]; inhibitor 200 μg/mL,3.141 µmol/min/mg
same,IC50,[3]; mean of three experiments ± SEM,1840 µM
same,IC50,[3]; molar equivalent of the μg/mL value,1830 µM
same,Aβ oligomerization reduction (relative amount of Aβ oligomers),Aβ1–42 [4]; 2 h incubation,statistically significant
same,Aβ oligomerization reduction (relative amount of Aβ oligomers),Aβ1–42 [4]; 4 h incubation,statistically significant
same,AChE inhibition,AChE; at 1 mg/mL,23.6%
same,AChE IC50,AChE,835.2 µg/mL
same,IC50,AChE,5560 µM
same,Ki,AChE; ref Grundy et al. 51,680 µM
same,Cytotoxicity (cell viability) in SH-SY5Y,[5],No significant difference
same,AChE IC50,[6],277.9 µg/mL
same,IC50,[6],1850 µM
same,type of AChE inhibition,[6],competitive inhibitor
same,Aβ fibrilization inhibition (ThT),Aβ1–42 [7],42.37 ± 0.76%
same,viability at 30 µg/mL,[8],70.5 ± 1.67%
